In ChEMBL document CHEMBL5335823, “Synthesis, biological evaluation, and stability studies of raloxifene mono- and bis-sulfamates as dual-targeting agents” (Bioorg Med Chem, 2024):
One block for each compound: values may come before it.

Assays:
[1] = target: T1, Steryl-sulfatase (Homo sapiens, UniProt P08842); experiment: Inhibition of STS in human JEG-3 cell lysates assessed as inhibition of estrone E1 formation using [3H]estrone sulfate as substrate incubated for 1 hr in presence of E1S by scintillation spectrometry; format: subcellular
T1 sequence (P08842 whole entry): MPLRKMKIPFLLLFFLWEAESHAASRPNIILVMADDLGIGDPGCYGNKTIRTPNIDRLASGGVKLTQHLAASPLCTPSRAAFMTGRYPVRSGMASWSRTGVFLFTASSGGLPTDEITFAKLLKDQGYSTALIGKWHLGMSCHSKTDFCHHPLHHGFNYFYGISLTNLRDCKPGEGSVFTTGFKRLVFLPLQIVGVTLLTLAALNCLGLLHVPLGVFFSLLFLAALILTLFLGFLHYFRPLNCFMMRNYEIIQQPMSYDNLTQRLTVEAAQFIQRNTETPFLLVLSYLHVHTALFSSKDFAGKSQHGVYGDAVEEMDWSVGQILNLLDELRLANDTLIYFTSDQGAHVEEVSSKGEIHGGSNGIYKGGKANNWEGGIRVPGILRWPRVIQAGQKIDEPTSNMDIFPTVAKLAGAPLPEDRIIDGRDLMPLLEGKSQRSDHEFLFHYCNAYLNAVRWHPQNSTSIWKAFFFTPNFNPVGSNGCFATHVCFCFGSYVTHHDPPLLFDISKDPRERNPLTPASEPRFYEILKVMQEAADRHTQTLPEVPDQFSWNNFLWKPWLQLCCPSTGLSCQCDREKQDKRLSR

[2] = target: T1, Steryl-sulfatase; experiment: Inhibition of STS in human JEG-3 cells assessed as inhibition of estrone E1 formation using [3H]estrone sulfate as substrate incubated for 20 hrs in presence of E1S by scintillation spectrometry; format: cell-based
[3] = test system: T47D; experiment: Antiproliferative activity against human T47D cells assessed as inhibition of cell growth incubated for 5 days by crystal violet staining based analysis; format: functional; settings: 120 h, time 5 day
[4] = test system: CCRF-CEM; experiment: Antiproliferative activity against human CCRF-CEM cells assessed as inhibition of cell growth measured after 72 hrs by CellTiter-Glo assay; format: functional
[5] = test system: HOP-62; experiment: Antiproliferative activity against human HOP-62 cells assessed as inhibition of cell growth measured after 72 hrs by CellTiter-Glo assay; format: functional
[6] = test system: HCT-116; experiment: Antiproliferative activity against human HCT-116 cells assessed as inhibition of cell growth measured after 72 hrs by CellTiter-Glo assay; format: functional
[7] = test system: SF-539; experiment: Antiproliferative activity against human SF-539 cells assessed as inhibition of cell growth measured after 72 hrs by CellTiter-Glo assay; format: functional
[8] = test system: UACC-62; experiment: Antiproliferative activity against human UACC-62 cells assessed as inhibition of cell growth measured after 72 hrs by CellTiter-Glo assay; format: functional
[9] = test system: OVCAR-4; experiment: Antiproliferative activity against human OVCAR-4 cells assessed as inhibition of cell growth measured after 72 hrs by CellTiter-Glo assay; format: functional
[10] = test system: SN12C; experiment: Antiproliferative activity against human SN12C cells assessed as inhibition of cell growth measured after 72 hrs by CellTiter-Glo assay; format: functional
[11] = test system: DU-145; experiment: Antiproliferative activity against human DU-145 cells assessed as inhibition of cell growth measured after 72 hrs by CellTiter-Glo assay; format: functional
[12] = test system: MDA-MB-231; experiment: Antiproliferative activity against human MDA-MB-231 cells assessed as inhibition of cell growth measured after 72 hrs by CellTiter-Glo assay; format: functional
[13] = Stability of the compound in wet DMSO-d6 assessed as parent compound remaining at 7.9 umol measured at room temperature after 6 days by 1HNMR spectroscopy; format: physicochemical; settings: at 7.9 µmol, time 6 day, read-out: Stability
[14] = Stability of the compound in wet DMSO-d6 assessed as parent compound remaining at 7.9 umol measured at room temperature after 30 days by 1HNMR spectroscopy; format: physicochemical; settings: at 7.9 µmol, time 30 day, read-out: Stability
[15] = test system: T47D; experiment: Antiproliferative activity against human T47D cells assessed as inhibition of cell growth at 10 uM incubated for 5 days by crystal violet staining based analysis; format: functional; settings: 120 h, time 5 day
[16] = Stability of the compound in wet DMSO-d6 assessed as parent compound remaining at 6.2 umol measured at room temperature after 6 days by 1HNMR spectroscopy; format: physicochemical; settings: at 6.2 µmol, time 6 day, read-out: Stability
[17] = Stability of the compound in wet DMSO-d6 assessed as parent compound remaining at 6.2 umol measured at room temperature after 45 days by 1HNMR spectroscopy; format: physicochemical; settings: at 6.2 µmol, time 45 day, read-out: Stability
[18] = target: T2, Estrogen receptor (Homo sapiens) (UniProt P03372); experiment: Antagonist activity at ER-alpha (unknown origin) at 10 microM by ER-alpha coactivator assay
T2 sequence (whole entry): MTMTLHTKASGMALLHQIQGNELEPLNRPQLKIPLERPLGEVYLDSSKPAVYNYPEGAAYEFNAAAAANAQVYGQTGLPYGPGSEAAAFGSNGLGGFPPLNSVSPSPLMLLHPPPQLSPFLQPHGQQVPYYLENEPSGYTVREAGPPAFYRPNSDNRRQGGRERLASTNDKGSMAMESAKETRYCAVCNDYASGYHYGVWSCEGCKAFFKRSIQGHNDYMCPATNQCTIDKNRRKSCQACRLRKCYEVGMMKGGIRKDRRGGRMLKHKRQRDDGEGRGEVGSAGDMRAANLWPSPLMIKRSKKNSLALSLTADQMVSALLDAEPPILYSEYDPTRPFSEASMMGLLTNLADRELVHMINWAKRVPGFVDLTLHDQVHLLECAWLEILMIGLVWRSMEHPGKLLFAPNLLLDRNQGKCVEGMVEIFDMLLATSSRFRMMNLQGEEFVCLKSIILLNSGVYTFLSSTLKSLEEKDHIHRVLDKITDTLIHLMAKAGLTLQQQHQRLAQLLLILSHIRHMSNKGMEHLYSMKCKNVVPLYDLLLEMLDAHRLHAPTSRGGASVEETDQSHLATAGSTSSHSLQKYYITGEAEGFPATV

[19] = Stability of the compound in wet DMSO-d6 assessed as parent compound remaining at 8 umol measured at room temperature after 45 days by 1HNMR spectroscopy; format: physicochemical; settings: at 8 µmol, time 45 day, read-out: Stability

IC50 ([1]; jeg-3): Not Active
SMILES: Cl.O=C(c1ccc(OCCN2CCCCC2)cc1)c1c(-c2ccc(O)cc2)sc2cc(O)ccc12 [RALOXIFENE HYDROCHLORIDE]

IC50 ([1]; read-out: IC50): 0.0966 µM
IC50 ([2]; read-out: IC50): 0.0122 µM
GI50 [3]: 7.12 µM
GI50 [4]: 9.02 µM
GI50 [6]: 14.6 µM
GI50 [9]: 10.6 µM
GI50 [11]: 16 µM
GI50 [12]: 1.34 µM
remaining at 144 h, 7.9 umol [13]: 27%
remaining at 720 h, 7.9 umol [14]: 0%
SMILES: NS(=O)(=O)Oc1ccc(-c2sc3cc(OS(N)(=O)=O)ccc3c2C(=O)c2ccc(OCCN3CCCCC3)cc2)cc1
GI50 [5]: 14.8 µM
GI50 [7]: 13.1 µM
GI50 [8]: 1.47 µM
GI50 [10]: 1.61 µM

IC50 ([1]; jeg-3): Not Active
IC50 ([2]; jeg-3): Not Active
GI50 [3]: 6.89 µM
SMILES: O=C(c1ccc(OCCN2CCCCC2)cc1)c1c(-c2ccc(O)cc2)sc2cc(O)ccc12 [RALOXIFENE]
inhibition at 10 µM [15]: 78%

IC50 ([1]; read-out: IC50): 2.08 µM
IC50 ([2]; read-out: IC50): 0.332 µM
remaining at 144 h, 6.2 umol [16]: 70%
remaining at 1080 h, 6.2 umol [17]: 18%
SMILES: NS(=O)(=O)Oc1ccc2c(C(=O)c3ccc(OCCN4CCCCC4)cc3)c(-c3ccc(O)cc3)sc2c1

IC50 ([1]; read-out: IC50): 3.4 µM
IC50 ([2]; read-out: IC50): 0.607 µM
inhibition [18]: 27%
remaining at 1080 h, 8 umol [19]: 12%
SMILES: NS(=O)(=O)Oc1ccc(-c2sc3cc(O)ccc3c2C(=O)c2ccc(OCCN3CCCCC3)cc2)cc1
inhibition at 10 µM [15]: 12%
